Experimental data: the supplement of paper PMC10307832

Columns and labels:
Test in all cases: relative viability (nuclei count vs DMSO), 5 days (fraction); higher = more cells survive
MK-8033 + Pictilisib = compound: Cn1cc(-c2cnc3ccc4ccc(CS(=O)(=O)NCc5ccccn5)cc4c(=O)c3c2)cn1 [MK-8033] + CS(=O)(=O)N1CCN(Cc2cc3nc(-c4cccc5[nH]ncc45)nc(N4CCOCC4)c3s2)CC1 [Pictilisib] (partner 1 µM)
Outline: (§1)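 Five library-drug doses in √10 steps were combined with a fixed anchor-drug dose, or a single drug was given alone, by pin tool to lung cancer cell lines in 1536-well plates the day after seeding. Nuclei were stained and counted after 5 days. Relative viability is the nuclei count in treated wells over that in vehicle wells, taken as the median of duplicate plates.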

MK-8033 + Bortezomib = compound: Cn1cc(-c2cnc3ccc4ccc(CS(=O)(=O)NCc5ccccn5)cc4c(=O)c3c2)cn1 [MK-8033] + CC(C)C[C@H](NC(=O)[C@H](Cc1ccccc1)NC(=O)c1cnccn1)B(O)O [Bortezomib] (partner 0.002 µM)
Outline: as §1

MK-8033 + Olaparib = compound: Cn1cc(-c2cnc3ccc4ccc(CS(=O)(=O)NCc5ccccn5)cc4c(=O)c3c2)cn1 [MK-8033] + O=C(c1cc(Cc2n[nH]c(=O)c3ccccc23)ccc1F)N1CCN(C(=O)C2CC2)CC1 [Olaparib] (partner 8 µM)
Outline: as §1

RU-SKI 43 + Tozasertib = compound: CC[C@@H](C)CNCC(=O)N1CCC2=C([C@@H]1COC3=CC=CC(=C3)C)C=CS2 [RU-SKI 43] + Cc1cc(Nc2cc(N3CCN(C)CC3)nc(Sc3ccc(NC(=O)C4CC4)cc3)n2)n[nH]1 [Tozasertib] (partner 0.1 µM)
Outline: as §1

Cell Line	relative viability (MK-8033 + Pictilisib; first compound 0.02 µM)	relative viability (MK-8033 + Pictilisib; first compound 0.06325 µM)	relative viability (MK-8033 + Pictilisib; first compound 0.2 µM)	relative viability (MK-8033 + Pictilisib; first compound 0.6325 µM)	relative viability (MK-8033 + Pictilisib; first compound 2 µM)	relative viability (MK-8033 + Bortezomib; first compound 0.02 µM)	relative viability (MK-8033 + Bortezomib; first compound 0.06325 µM)	relative viability (MK-8033 + Bortezomib; first compound 0.2 µM)	relative viability (MK-8033 + Bortezomib; first compound 0.6325 µM)	relative viability (MK-8033 + Bortezomib; first compound 2 µM)	relative viability (MK-8033 + Olaparib; first compound 0.02 µM)	relative viability (MK-8033 + Olaparib; first compound 0.06325 µM)	relative viability (MK-8033 + Olaparib; first compound 0.2 µM)	relative viability (MK-8033 + Olaparib; first compound 0.6325 µM)	relative viability (MK-8033 + Olaparib; first compound 2 µM)	relative viability (RU-SKI 43 + Tozasertib; first compound 0.1 µM)	relative viability (RU-SKI 43 + Tozasertib; first compound 0.3162 µM)	relative viability (RU-SKI 43 + Tozasertib; first compound 1 µM)	relative viability (RU-SKI 43 + Tozasertib; first compound 3.162 µM)	relative viability (RU-SKI 43 + Tozasertib; first compound 10 µM)
EKVX	0.433	0.409	0.442	0.438	0.476	1	0.995	0.968	0.712	1.03	0.85	0.842	0.825	0.763	0.859	0.354	0.379	0.374	0.372	0.31
HCC-15	0.829	0.632	0.698	0.767	0.754	1.04	1.01	0.99	1.05	0.952	0.807	0.611	0.737	0.67	0.529	0.43	0.327	0.27	0.252	0.219
LXF-289	0.789	0.64	0.721	0.734	0.823	0.989	0.964	0.985	0.999	0.978	1.06	1.05	1.02	1.12	1.03	0.229	0.249	0.21	0.2	0.183
NCI-H2126	0.491	0.393	0.455	0.515	0.491	1.17	1.11	1.01	1.06	1.07	0.978	0.921	0.806	0.903	0.875	0.817	0.917	0.962	0.854	0.74
